# Laboratory results: the supplement of paper PMC9663587
# What was measured:
# [1] = compound: CC(=O)c1c(C)c2cnc(Nc3ccc(N4CCNCC4)cn3)nc2n(C2CCCC2)c1=O; assay: increase in dead-cell fraction, 72 h; higher = more death;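 note: breast cancer cell lines in 384-well plates, stained with Hoechst plus LIVE/DEAD far red dye and imaged, cells above an LDR intensity threshold counted dead, Hoechst-negative corpses included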
# THZ1 [2] = compound: T1, CN(C)C/C=C/C(=O)Nc1ccc(C(=O)Nc2cccc(Nc3ncc(Cl)c(-c4c[nH]c5ccccc45)n3)c2)cc1 [THZ1]; assay: as above
# YKL-5-124 = compound: C=CC(=O)Nc1ccc(C(=O)Nc2[nH]nc3c2CN(C(=O)N[C@H](CN(C)C)c2ccccc2)C3(C)C)cc1 [YKL-5-124]; assay: as above
# Flavopiridol = compound: CN1CC[C@H](c2c(O)cc(O)c3c(=O)cc(-c4ccccc4Cl)oc23)[C@H](O)C1 [Flavopiridol]; assay: as above
# [3] = compound: CCN1CCN(Cc2ccc(Nc3ncc(F)c(-c4cc(F)c5nc(C)n(C(C)C)c5c4)n3)nc2)CC1; assay: as above
# BSJ-03-123 = compound: CC(=O)c1c(C)c2cnc(Nc3ccc(N4CCN(CCOCCOCCOCCNC(=O)COc5cccc6c5C(=O)N(C5CCC(=O)NC5=O)C6=O)CC4)cn3)nc2n(C2CCCC2)c1=O [BSJ-03-123]; assay: as above
# THZ531 = compound: CN(C)C/C=C/C(=O)Nc1ccc(C(=O)N2CCC[C@@H](Nc3ncc(Cl)c(-c4c[nH]c5ccccc45)n3)C2)cc1 [THZ531]; assay: as above
# [4] = compound: CCc1cnn2c(NCc3ccc[n+]([O-])c3)cc(N3CCCC[C@H]3CCO)nc12; assay: as above
# LEE011/Ribociclib = compound: CN(C)C(=O)c1cc2cnc(Nc3ccc(N4CCNCC4)cn3)nc2n1C1CCCC1 [LEE011/Ribociclib]; assay: as above
# Neratinib/HKI272 [5] = compound: T2, CCOc1cc2ncc(C#N)c(Nc3ccc(OCc4ccccn4)c(Cl)c3)c2cc1NC(=O)/C=C/CN(C)C [Neratinib/HKI272]; assay: as above
# THZ1 [6] = compound: T1, THZ1; assay: GR value, 72 h; higher = faster growth (1 = untreated, <0 = killing);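 note: breast cancer and non-malignant breast epithelial lines, nine half-log doses, viable cells counted by Hoechst and LIVE/DEAD dye imaging versus time-zero plates and DMSO controls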
# Neratinib/HKI272 [7] = compound: T2, Neratinib/HKI272; assay: as above
cell line,measurement,setting,value
ZR751,increase in dead-cell fraction,[1]; 0.0003162 µM,-0.0023
same,increase in dead-cell fraction,[1]; 0.001 µM,-0.0015
same,increase in dead-cell fraction,[1]; 0.003162 µM,-0.0035
same,increase in dead-cell fraction,[1]; 0.01 µM,0.0001
same,increase in dead-cell fraction,[1]; 0.03162 µM,0.002
same,increase in dead-cell fraction,[1]; 0.1 µM,-0.0025
same,increase in dead-cell fraction,[1]; 0.3162 µM,0.0083
same,increase in dead-cell fraction,[1]; 1 µM,0.008
same,increase in dead-cell fraction,[1]; 3.162 µM,0.0189
same,increase in dead-cell fraction,THZ1 [2]; 0.0001 µM,-0.0022
same,increase in dead-cell fraction,THZ1 [2]; 0.0003162 µM,-0.0022
same,increase in dead-cell fraction,THZ1 [2]; 0.001 µM,0.0059
same,increase in dead-cell fraction,THZ1 [2]; 0.003162 µM,-0.0001
same,increase in dead-cell fraction,THZ1 [2]; 0.01 µM,0.002
same,increase in dead-cell fraction,THZ1 [2]; 0.03162 µM,0.0035
same,increase in dead-cell fraction,THZ1 [2]; 0.1 µM,0.0005
same,increase in dead-cell fraction,THZ1 [2]; 0.3162 µM,0.0111
same,increase in dead-cell fraction,THZ1 [2]; 1 µM,0.0673
same,increase in dead-cell fraction,YKL-5-124; 0.001 µM,0.0021
same,increase in dead-cell fraction,YKL-5-124; 0.003162 µM,0.0092
same,increase in dead-cell fraction,YKL-5-124; 0.01 µM,0.0198
same,increase in dead-cell fraction,YKL-5-124; 0.03162 µM,0.0185
same,increase in dead-cell fraction,YKL-5-124; 0.1 µM,0.014
same,increase in dead-cell fraction,YKL-5-124; 0.3162 µM,0.0125
same,increase in dead-cell fraction,YKL-5-124; 1 µM,0.0157
same,increase in dead-cell fraction,YKL-5-124; 3.162 µM,0.0241
same,increase in dead-cell fraction,YKL-5-124; 10 µM,0.0249
same,increase in dead-cell fraction,Flavopiridol; 0.0001 µM,-0.0019
same,increase in dead-cell fraction,Flavopiridol; 0.0003162 µM,-0.0035
same,increase in dead-cell fraction,Flavopiridol; 0.001 µM,0.0015
same,increase in dead-cell fraction,Flavopiridol; 0.003162 µM,0.0014
same,increase in dead-cell fraction,Flavopiridol; 0.01 µM,-0.0008
same,increase in dead-cell fraction,Flavopiridol; 0.03162 µM,-0.0022
same,increase in dead-cell fraction,Flavopiridol; 0.1 µM,0.0001
same,increase in dead-cell fraction,Flavopiridol; 0.3162 µM,0.0129
same,increase in dead-cell fraction,Flavopiridol; 1 µM,0.144
same,increase in dead-cell fraction,[3]; 0.001 µM,0.0013
same,increase in dead-cell fraction,[3]; 0.003162 µM,0.0092
same,increase in dead-cell fraction,[3]; 0.01 µM,0.0042
same,increase in dead-cell fraction,[3]; 0.03162 µM,0.0075
same,increase in dead-cell fraction,[3]; 0.1 µM,0.0148
same,increase in dead-cell fraction,[3]; 0.3162 µM,0.021
same,increase in dead-cell fraction,[3]; 1 µM,0.0189
same,increase in dead-cell fraction,[3]; 3.162 µM,0.0151
same,increase in dead-cell fraction,[3]; 10 µM,0.0172
same,increase in dead-cell fraction,BSJ-03-123; 0.001 µM,-0.0037
same,increase in dead-cell fraction,BSJ-03-123; 0.003162 µM,-0.0033
same,increase in dead-cell fraction,BSJ-03-123; 0.01 µM,-0.0001
same,increase in dead-cell fraction,BSJ-03-123; 0.03162 µM,-0.0011
same,increase in dead-cell fraction,BSJ-03-123; 0.1 µM,0.0026
same,increase in dead-cell fraction,BSJ-03-123; 0.3162 µM,-0.0001
same,increase in dead-cell fraction,BSJ-03-123; 1 µM,0.0048
same,increase in dead-cell fraction,BSJ-03-123; 3.162 µM,0.004
same,increase in dead-cell fraction,BSJ-03-123; 10 µM,0.0165
same,increase in dead-cell fraction,THZ531; 0.0001 µM,-0.0027
same,increase in dead-cell fraction,THZ531; 0.0003162 µM,0.0028
same,increase in dead-cell fraction,THZ531; 0.001 µM,-0.0004
same,increase in dead-cell fraction,THZ531; 0.003162 µM,0.0013
same,increase in dead-cell fraction,THZ531; 0.01 µM,-0.0036
same,increase in dead-cell fraction,THZ531; 0.03162 µM,0.0009
same,increase in dead-cell fraction,THZ531; 0.1 µM,0.0019
same,increase in dead-cell fraction,THZ531; 0.3162 µM,0.0013
same,increase in dead-cell fraction,THZ531; 1 µM,0.151
same,increase in dead-cell fraction,[4]; 0.0001 µM,-0.0029
same,increase in dead-cell fraction,[4]; 0.0003162 µM,-0.0028
same,increase in dead-cell fraction,[4]; 0.001 µM,-0.0042
same,increase in dead-cell fraction,[4]; 0.003162 µM,0.0003
same,increase in dead-cell fraction,[4]; 0.01 µM,-0.0059
same,increase in dead-cell fraction,[4]; 0.03162 µM,0.008
same,increase in dead-cell fraction,[4]; 0.1 µM,0.22
same,increase in dead-cell fraction,[4]; 0.3162 µM,0.21
same,increase in dead-cell fraction,[4]; 1 µM,0.202
same,increase in dead-cell fraction,LEE011/Ribociclib; 0.001 µM,0.001
same,increase in dead-cell fraction,LEE011/Ribociclib; 0.003162 µM,0.0005
same,increase in dead-cell fraction,LEE011/Ribociclib; 0.01 µM,0.0005
same,increase in dead-cell fraction,LEE011/Ribociclib; 0.03162 µM,-0.0023
same,increase in dead-cell fraction,LEE011/Ribociclib; 0.1 µM,0.0065
same,increase in dead-cell fraction,LEE011/Ribociclib; 0.3162 µM,0.0036
same,increase in dead-cell fraction,LEE011/Ribociclib; 1 µM,0.0073
same,increase in dead-cell fraction,LEE011/Ribociclib; 3.162 µM,0.0082
same,increase in dead-cell fraction,LEE011/Ribociclib; 10 µM,0.0077
same,increase in dead-cell fraction,Neratinib/HKI272 [5]; 0.0003162 µM,-0.0059
same,increase in dead-cell fraction,Neratinib/HKI272 [5]; 0.001 µM,-0.0002
same,increase in dead-cell fraction,Neratinib/HKI272 [5]; 0.003162 µM,-0.0001
same,increase in dead-cell fraction,Neratinib/HKI272 [5]; 0.01 µM,-0.0032
same,increase in dead-cell fraction,Neratinib/HKI272 [5]; 0.03162 µM,-0.0037
same,increase in dead-cell fraction,Neratinib/HKI272 [5]; 0.1 µM,-0.0037
same,increase in dead-cell fraction,Neratinib/HKI272 [5]; 0.3162 µM,0
same,increase in dead-cell fraction,Neratinib/HKI272 [5]; 1 µM,0.0004
same,increase in dead-cell fraction,Neratinib/HKI272 [5]; 3.162 µM,0.001
same,GR value,THZ1 [6]; 0.0001 µM,1.03 GR
same,GR value,THZ1 [6]; 0.0003162 µM,1.02 GR
same,GR value,THZ1 [6]; 0.001 µM,0.935 GR
same,GR value,THZ1 [6]; 0.003162 µM,0.967 GR
same,GR value,THZ1 [6]; 0.01 µM,0.949 GR
same,GR value,THZ1 [6]; 0.03162 µM,0.915 GR
same,GR value,THZ1 [6]; 0.1 µM,0.816 GR
same,GR value,THZ1 [6]; 0.3162 µM,0.748 GR
same,GR value,THZ1 [6]; 1 µM,-0.165 GR
same,GR value,Neratinib/HKI272 [7]; 0.0003162 µM,1.01 GR
same,GR value,Neratinib/HKI272 [7]; 0.001 µM,1.03 GR
same,GR value,Neratinib/HKI272 [7]; 0.003162 µM,0.972 GR
same,GR value,Neratinib/HKI272 [7]; 0.01 µM,1.02 GR
same,GR value,Neratinib/HKI272 [7]; 0.03162 µM,0.92 GR
same,GR value,Neratinib/HKI272 [7]; 0.1 µM,0.864 GR
same,GR value,Neratinib/HKI272 [7]; 0.3162 µM,0.741 GR
same,GR value,Neratinib/HKI272 [7]; 1 µM,0.757 GR
same,GR value,Neratinib/HKI272 [7]; 3.162 µM,0.733 GR
